Measurements reported in the supplement of paper PMC10307832.

How the values were obtained:
Assay in all cases: relative viability (nuclei count vs DMSO), 5 days (fraction); higher = more cells survive
Selisistat + Bortezomib = compound: C1CC(C2=C(C1)C3=C(N2)C=CC(=C3)Cl)C(=O)N [Selisistat] + CC(C)C[C@H](NC(=O)[C@H](Cc1ccccc1)NC(=O)c1cnccn1)B(O)O [Bortezomib] (partner 0.002 µM)
Procedure, shortened: (§1)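 Lung cancer cell lines in 1536-well plates were dosed by pin tool the day after seeding, either with one drug alone or with a fixed anchor-drug dose plus five library-drug doses (not always all listed) in √10 steps. After 5 days, cells were fixed and their nuclei stained in one step (final 0.05% Triton X-100, 1% formaldehyde, 1 ug/ml Hoechst), then counted on 4× images. Relative viability is the nuclei count in treated wells divided by that in vehicle wells. Values are medians of duplicate plates.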

Selisistat + Pictilisib = compound: C1CC(C2=C(C1)C3=C(N2)C=CC(=C3)Cl)C(=O)N [Selisistat] + CS(=O)(=O)N1CCN(Cc2cc3nc(-c4cccc5[nH]ncc45)nc(N4CCOCC4)c3s2)CC1 [Pictilisib] (partner 1 µM)
Procedure, shortened: as §1

Selisistat + Olaparib = compound: C1CC(C2=C(C1)C3=C(N2)C=CC(=C3)Cl)C(=O)N [Selisistat] + O=C(c1cc(Cc2n[nH]c(=O)c3ccccc23)ccc1F)N1CCN(C(=O)C2CC2)CC1 [Olaparib] (partner 8 µM)
Procedure, shortened: as §1

Serdemetan + Dasatinib = compound: c1ccc2c(CCNc3ccc(Nc4ccncc4)cc3)c[nH]c2c1 [Serdemetan] + Cc1nc(Nc2ncc(C(=O)Nc3c(C)cccc3Cl)s2)cc(N2CCN(CCO)CC2)n1 [Dasatinib] (partner 0.075 µM)
Procedure, shortened: as §1

| Cell Line | relative viability (Selisistat + Bortezomib; first compound 0.4 µM) | relative viability (Selisistat + Bortezomib; first compound 1.265 µM) | relative viability (Selisistat + Bortezomib; first compound 4 µM) | relative viability (Selisistat + Bortezomib; first compound 12.65 µM) | relative viability (Selisistat + Bortezomib; first compound 40 µM) | relative viability (Selisistat + Pictilisib; first compound 0.4 µM) | relative viability (Selisistat + Pictilisib; first compound 1.265 µM) | relative viability (Selisistat + Pictilisib; first compound 4 µM) | relative viability (Selisistat + Pictilisib; first compound 12.65 µM) | relative viability (Selisistat + Pictilisib; first compound 40 µM) | relative viability (Selisistat + Olaparib; first compound 0.4 µM) | relative viability (Selisistat + Olaparib; first compound 1.265 µM) | relative viability (Selisistat + Olaparib; first compound 4 µM) | relative viability (Selisistat + Olaparib; first compound 12.65 µM) | relative viability (Selisistat + Olaparib; first compound 40 µM) | relative viability (Serdemetan + Dasatinib; first compound 0.04 µM) | relative viability (Serdemetan + Dasatinib; first compound 0.1265 µM) | relative viability (Serdemetan + Dasatinib; first compound 0.4 µM) | relative viability (Serdemetan + Dasatinib; first compound 1.265 µM) | relative viability (Serdemetan + Dasatinib; first compound 4 µM) |
| --- | --- | --- | --- | --- | --- | --- | --- | --- | --- | --- | --- | --- | --- | --- | --- | --- | --- | --- | --- | --- |
| LOU-NH91 | 0.499 | 0.505 | 0.448 | 0.511 | 0.515 | 0.538 | 0.496 | 0.485 | 0.532 | 0.512 | 0.936 | 0.867 | 0.914 | 0.895 | 0.899 | 0.564 | 0.554 | 0.371 | 0.43 | 0.565 |
| LU99A | 1.17 | 1.15 | 1.33 | 1.16 | 1.11 | 0.336 | 0.35 | 0.404 | 0.373 | 0.299 | 0.24 | 0.248 | 0.307 | 0.255 | 0.251 | 0.545 | 0.515 | 0.592 | 0.217 | 0.232 |
| LXF-289 | 1.02 | 1.05 | 0.832 | 0.937 | 0.984 | 0.845 | 0.812 | 0.633 | 0.747 | 0.85 | 1.1 | 1.03 | 0.96 | 0.966 | 1.04 | 0.231 | 0.197 | 0.199 | 0.202 | 0.185 |
| NCI-H23 | 1.02 | 1.11 | – | 1.1 | 1.08 | 0.562 | 0.462 | – | 0.567 | 0.51 | 0.234 | 0.353 | – | 0.305 | 0.31 | 0.734 | 0.877 | 0.794 | 0.548 | 0.914 |
| NCI-H322M | 1.36 | 1.25 | – | 1.42 | 1.39 | 0.562 | 0.525 | – | 0.549 | 0.604 | 0.857 | 0.83 | – | 0.845 | 0.868 | 0.266 | 0.24 | 0.248 | 0.214 | 0.272 |
| NCI-H441 | 0.74 | 0.588 | – | 0.467 | 0.482 | 0.511 | 0.44 | 0.405 | 0.547 | 0.48 | 0.49 | 0.51 | 0.582 | 0.504 | 0.534 | 0.69 | 0.649 | 0.516 | 0.585 | 0.435 |
| NCI-H460 | 1.04 | 1.14 | – | 1.02 | 1.12 | 0.439 | 0.282 | 0.164 | 0.317 | 0.33 | 0.452 | 0.404 | – | 0.319 | 0.403 | 0.616 | 0.545 | 0.47 | 0.258 | 0.141 |
| NCI-H520 | 0.525 | 0.495 | 0.619 | 0.648 | 0.738 | 0.262 | 0.304 | 0.15 | 0.294 | 0.354 | 0.413 | 0.317 | 0.364 | 0.344 | 0.319 | 0.244 | 0.182 | 0.223 | – | 0.198 |
| NCI-H596 | 1.01 | 0.105 | 0.817 | 0.947 | 1 | 0.372 | 0.411 | 0.391 | 0.434 | 0.434 | 0.802 | 0.715 | 0.643 | 0.619 | 0.609 | 0.677 | 0.637 | 0.645 | 0.565 | 0.522 |
| NCI-H647 | 0.95 | 0.987 | – | 0.885 | 1.16 | 0.488 | – | 0.289 | 0.422 | 0.361 | 0.622 | 0.577 | 0.736 | 0.48 | 0.591 | 0.217 | 0.153 | 0.156 | 0.184 | 0.167 |
| NCI-H650 | 0.832 | – | 0.868 | 0.636 | 1.08 | 0.746 | – | 1.11 | 0.594 | 0.807 | 0.51 | 0.379 | 0.496 | 0.382 | 0.3 | 0.424 | 0.449 | 0.451 | 0.35 | 0.43 |
| NCI-H661 | 0.858 | 0.816 | 0.664 | 0.701 | 0.704 | 0.476 | 0.478 | 0.343 | 0.348 | 0.38 | 0.739 | 0.713 | 0.781 | 0.667 | 0.577 | 0.856 | 0.916 | 0.849 | – | 0.564 |
| NCI-H727 | 1.01 | 0.623 | – | – | 0.864 | 0.354 | 0.435 | – | – | 0.423 | 0.737 | 0.635 | 0.631 | 0.655 | 0.687 | 0.36 | 0.42 | 0.445 | 0.251 | 0.25 |
| NCI-H838 | 0.803 | 0.73 | 0.603 | 0.878 | 1.01 | 0.48 | 0.514 | 0.39 | 0.489 | 0.446 | 0.833 | 0.782 | 0.842 | 0.75 | 0.733 | 0.291 | 0.345 | 0.272 | 0.276 | 0.273 |
| NCI-H1355 | 1.18 | 1.21 | – | 1.13 | 1.35 | 0.406 | 0.427 | – | 0.5 | 0.514 | 0.796 | 0.775 | 0.664 | 0.735 | 0.813 | 0.78 | 0.759 | 0.601 | 0.602 | 0.76 |
| NCI-H1437 | 0.575 | 0.451 | 0.378 | 0.431 | 0.515 | 0.48 | 0.439 | 0.202 | 0.503 | 0.455 | 0.599 | 0.615 | 0.618 | 0.565 | 0.544 | 0.347 | 0.352 | 0.388 | 0.274 | 0.289 |
| NCI-H1650 | 0.281 | 0.205 | 0.222 | 0.202 | 0.22 | 0.692 | 0.59 | 0.516 | 0.589 | 0.548 | 0.933 | 0.863 | 0.86 | 0.852 | 0.702 | 0.297 | 0.345 | 0.272 | 0.34 | 0.268 |
